Source: US8178517B2, “6-methylvitamin D3 analogs and their uses” (Wisconsin Alumni Research Foundation, priority 2009, dated 2012)
pEC50, pKi: −log10 of the molar value.

Tests used:
[1] = system: vitamin D-deficient rats on a low calcium diet; test: Intestinal calcium transport, everted gut sac method; type: in vivo, rat; settings: for intestinal calcium transport activity (everted gut sac): 7020 pmol/day for 4 consecutive days
Description: (§1) Intestinal Calcium Transport and Bone Calcium Mobilization
(§2) Male, weanling Sprague-Dawley rats were placed on Diet 11 (0.47% Ca) diet+AEK oil for one week followed by Diet 11 (0.02% Ca)+AEK oil for 3 weeks. The rats were then switched to a diet containing 0.47% Ca for one week followed by two weeks on a diet containing 0.02% Ca. Dose administration began during the last week on 0.02% calcium diet. Four consecutive ip doses were given approximately 24 hours apart. Twenty-four hours after the last dose, blood was collected from the severed neck and the concentration of serum calcium determined as a measure of bone calcium mobilization. The first 10 cm of the intestine was also collected for intestinal calcium transport analysis using the everted gut sac method.

[2] = system: vitamin D-deficient rats on a low calcium diet; test: Bone calcium mobilization (serum calcium) in vitamin D-deficient rats; type: in vivo, rat; settings: for serum calcium (bone calcium mobilization): 7020 pmol/day ip for 4 consecutive days, rats on 0.02% Ca diet
Description: as §1, §2

HL-60 cells = test: HL-60 differentiation (nitro blue tetrazolium reduction); type: cell-based, human; settings: for pEC50: Homo sapiens, HL-60 cells, differentiation into monocytes, FIG. 2, read-out: EC50, HL-60 cell differentiation
Description: Serial dilutions were prepared so that a range of drug concentrations could be tested without changing the final concentration of ethanol (≦0.2%) present in the cell cultures.
Human promyelocytic leukemia (HL60) cells were grown in RPMI-1640 medium containing 10% fetal bovine serum. The cells were incubated at 37° C. in the presence of 5% CO2.
HL60 cells were plated at 1.2×10^5 cells/ml. Eighteen hours after plating, cells in duplicate were treated with drug. Four days later, the cells were harvested and a nitro blue tetrazolium reduction assay was performed (Collins et al., 1979; J. Exp. Med. 149:969-974). The percentage of differentiated cells was determined by counting a total of 200 cells and recording the number that contained intracellular black-blue formazan deposits. Verification of differentiation to monocytic cells was determined by measuring phagocytic activity (data not shown).

[3] = system: 24-hydroxylase (24Ohase) gene promoter; test: In vitro transcription assay (24-hydroxylase promoter luciferase reporter in ROS 17/2.8 bone cells); type: cell-based; settings: for pEC50: ROS 17/2.8 bone cells, luciferase reporter, FIG. 3, read-out: EC50, transcriptional activity in bone cells (24-hydroxylase gene)
Description: In Vitro Transcription Assay
Transcription activity was measured in ROS 17/2.8 (bone) cells that were stably transfected with a 24-hydroxylase (24Ohase) gene promoter upstream of a luciferase reporter gene (Arbour et al., 1998). Cells were given a range of doses. Sixteen hours after dosing the cells were harvested and luciferase activities were measured using a luminometer.
RLU=relative luciferase units.

[4] = Isomerization to previtamin form / storage stability; type: physicochemical; settings: can be stored by a prolonged time in a freezer
[5] = target: T1, full-length recombinant rat vitamin D receptor (Rattus norvegicus, UniProt P13053); test: biochemical
T1 sequence (P13053 1-423): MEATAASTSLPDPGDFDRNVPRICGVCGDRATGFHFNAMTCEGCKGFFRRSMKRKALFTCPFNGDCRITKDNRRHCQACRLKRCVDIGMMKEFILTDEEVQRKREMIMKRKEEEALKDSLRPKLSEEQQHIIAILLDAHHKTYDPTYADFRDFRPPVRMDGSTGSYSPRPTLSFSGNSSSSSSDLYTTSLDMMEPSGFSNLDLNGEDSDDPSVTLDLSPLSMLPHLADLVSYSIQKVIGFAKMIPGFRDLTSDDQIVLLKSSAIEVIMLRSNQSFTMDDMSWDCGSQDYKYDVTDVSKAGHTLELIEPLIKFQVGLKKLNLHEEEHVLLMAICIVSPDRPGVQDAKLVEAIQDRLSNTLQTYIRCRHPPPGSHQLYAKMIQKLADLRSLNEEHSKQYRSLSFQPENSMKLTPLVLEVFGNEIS
Description: Vitamin D Receptor Binding
Full-length recombinant rat receptor was expressed in E. coli BL21 (DE3) Codon Plus RIL cells and purified to homogeneity using two different column chromatography systems. The first system was a nickel affinity resin that utilizes the C-terminal histidine tag on this protein. The protein that was eluted from this resin was further purified using ion exchange chromatography (S-Sepharose Fast Flow). Aliquots of the purified protein were quick frozen in liquid nitrogen and stored at −80° C. until use. For use in binding assays, the protein was diluted in TEDK50 (50 mM Tris, 1.5 mM EDTA, pH7.4, 5 mM DTT, 150 mM KCl) with 0.1% Chaps detergent.
Radiolabeled and unlabeled ligands were added to 100 mcl of the diluted protein at a final ethanol concentration of ≦10%, mixed and incubated overnight on ice to reach binding equilibrium. The following day, 100 mcl of hydroxylapatite slurry (50%) was added to each tube and mixed at 10-minute intervals for 30 minutes. The hydroxylapaptite was collected by centrifugation and then washed three times with Tris-EDTA buffer (50 mM Tris, 1.5 mM EDTA, pH 7.4) containing 0.5% Titron X-100. […] Total binding was determined from the tubes containing only radiolabeled ligand.

[6] = relative to 1,25(OH)2D3, in vivo, rats
[7] = relative to 1α,25-dihydroxyvitamin D3

SMILES	intestinal calcium transport activity (everted gut sac) ([1]; rats, FIG. 5)	serum calcium (bone calcium mobilization) ([2]; FIG. 4) [mg/dL]	effect on serum calcium levels across dosages ([2]; all dosages tested, FIG. 4)	pEC50 (HL-60 cells)	pEC50 [3]	stability (isomerization to previtamin D form) [4]	dose dependence of intestinal calcium transport ([1]; across doses, FIG. 5)	times less potent than 1,25(OH)2D3 in stimulating intestinal calcium transport [1, 6]	times less potent than 1,25(OH)2D3 in mobilizing calcium from bone [2, 6]	pKi [5]	times less activity than 1α,25-dihydroxyvitamin D3 in HL-60 cell differentiation (HL-60 cells; [7]) [times]	times less transcriptional activity in bone cells than 1α,25-dihydroxyvitamin D3 [3, 7] [times]
C=C1C(=CC=C2CCCC3(C)C2CCC3C(C)CCCC(C)(C)O)CC(O)CC1O (stereo not drawn) [1,25(OH)2D3, 1α,25-dihydroxyvitamin D3, reference compound]	8.3	7.6	increased serum calcium levels at all dosages	8.70	9.70							
C=C1/C(=C(C)\C=C2/CCC[C@@]3(C)C2CCC3[C@H](C)CCCC(C)(C)O)C[C@@H](O)C[C@@H]1O (stereo partly drawn) [Me-Cvit, 1α,25-dihydroxy-6-methylvitamin D3]	4.8	4.3		7.10	8.40	very easily isomerizes to its previtamin D form 5	promotes intestinal calcium transport in a dose dependent manner	greater than 1,000 times	about 400 times	10.70	~20	~10
